{"source": "paper PMC10535856", "about": "“CD4^+ T Cell Responses to Toxoplasma gondii Are a Double-Edged Sword” (Vaccines, 2023)", "key": {"[1]": {"test_system": "Toxoplasma gondii tachyzoites and encysted bradyzoites", "conditions": "cited from earlier work"}, "I-A^b [2]": {"target": "T1, I-A^b (Mus musculus, UniProt P14434+P14483)", "T1 sequence (P14434 24-256)": "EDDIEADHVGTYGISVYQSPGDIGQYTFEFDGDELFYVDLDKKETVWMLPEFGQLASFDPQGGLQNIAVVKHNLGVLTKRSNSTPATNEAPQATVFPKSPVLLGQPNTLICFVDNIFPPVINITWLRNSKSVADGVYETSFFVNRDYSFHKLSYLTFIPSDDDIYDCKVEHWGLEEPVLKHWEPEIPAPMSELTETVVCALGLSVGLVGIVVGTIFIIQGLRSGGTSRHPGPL", "T1 sequence (P14483 28-265)": "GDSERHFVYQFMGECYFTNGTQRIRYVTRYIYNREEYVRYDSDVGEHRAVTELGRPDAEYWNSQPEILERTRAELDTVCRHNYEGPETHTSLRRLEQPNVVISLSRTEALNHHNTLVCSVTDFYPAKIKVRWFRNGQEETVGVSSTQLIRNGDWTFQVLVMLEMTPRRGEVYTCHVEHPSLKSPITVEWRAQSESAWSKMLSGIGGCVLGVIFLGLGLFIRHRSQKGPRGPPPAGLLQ", "parameters": "method as in PMID 7895164, PMID 32763137", "conditions": "cited from earlier work"}, "CD4^+ T cells": {"test_system": "CD4^+ T cells", "conditions": "in vitro human PBMCs and in vivo mice; cited from earlier work", "from_the_text": "Vaccines that are composed of polypeptides that elicit epitope-restricted CD4^+ and CD8^+ T cells have the potential to induce an immune response against human toxoplasmic infection in humans. We are building a rational “immunosense” approach that utilizes epitope selection for peptides that can be presented by human major histocompatibility complexes (MHCs) to elicit protective CD8^+ and CD4^+ T cells. We have made considerable efforts to iden ..."}, "[3]": {"test_system": "uninfected HLA-A*11:01 transgenic mice", "experiment": "Mortality and tolerability after boost immunization", "format": "in vivo, mouse"}, "I-A^b [4]": {"target": "T1, I-A^b", "experiment": "Competitive peptide binding to I-A^b", "conditions": "competitive binding study, procedure of ref 51; 'bound weakly'"}}, "note": "Where no end group is shown, it is not given here."}
{"molecule": "Nc1ccc(S(=O)(=O)Nc2ncccn2)cc1", "note": "[sulfadiazine]", "values": [{"measurement": "Activity against actively replicating tachyzoites", "setting": "[1]", "value": "effective against actively replicating tachyzoites"}, {"measurement": "Elimination of encysted bradyzoites", "setting": "[1]", "value": "cannot eliminate encysted bradyzoites"}]}
{"molecule": "CCc1nc(N)nc(N)c1-c1ccc(Cl)cc1", "note": "[Pyrimethamine]", "values": [{"measurement": "Activity against actively replicating tachyzoites", "setting": "[1]", "value": "effective against actively replicating tachyzoites"}, {"measurement": "Elimination of encysted bradyzoites", "setting": "[1]", "value": "cannot eliminate encysted bradyzoites"}]}
{"molecule": "AKFVAAWTLKAAA [PADRE]", "values": [{"measurement": "Affinity to I-A^b", "setting": "I-A^b [2]", "value": "relatively high affinity"}, {"measurement": "Generation of responsive CD4^+ T cells", "setting": "CD4^+ T cells", "value": "contributes to the generation of responsive CD4^+ T cells"}]}
{"molecule": "AVEIHRPVPGTAPPS [AS15, AVEIHRPVPGTAPPS]", "values": [{"measurement": "Harmful response to single components", "setting": "[3]; AS15 or GLA-SE alone", "value": "neither AS15 nor GLA-SE alone elicit this harmful response"}, {"measurement": "Overall effect in summary cartoon", "setting": "[3]; Figure S1, single components", "value": "No effect"}, {"measurement": "IC50", "setting": "I-A^b [4]", "value": 413, "unit": "nM"}]}
